molecular target: human ACC2 (Homo sapiens (Human), UniProt O00763); assay: ACC2 assay (spectrophotometric 384 well assay, NADH-linked kinetic method); format: biochemical; details: hACC2 construct lacking 128 N-terminal amino acids; coupled lactate dehydrogenase/pyruvate kinase reaction, 340 nm, 25° C.
Procedure: Spectrophotometric 384 Well Assay
Malonyl CoA formation by acetyl CoA carboxylases is stoichometrically linked to the consumption of ATP. ACC2 activity is measured in a NADH-linked kinetic method measuring ADP generated during the ACC reaction using a coupled lactate dehydrogenase/pyruvate kinase reaction.
The protein is then expressed in insect cells using a baculoviral expression system. Protein purification is performed by anion exchange.
All compounds are dissolved in dimethyl sulfoxide (DMSO) to a concentration of 10 mM.
The enzymatic reaction is then started by addition of a mixture of NADH, acetyl Coenzyme A (both 200 μM f.c.) and ATP (500 uM f.c.). The decrease of the optical density (slope S) is then determined at 25° C. at a wavelength of 340 nm over 15 minutes in a spectrophotometric reader.
Each assay microtiter plate contains wells with vehicle instead of compound as controls for the non-inhibited enzyme (100% CTL; ‘HIGH’) and wells without acetyl-CoA as controls for non-specific NADH degradation (0% CTL; ‘LOW’).

human ACC2, sequence (O00763 129-2458): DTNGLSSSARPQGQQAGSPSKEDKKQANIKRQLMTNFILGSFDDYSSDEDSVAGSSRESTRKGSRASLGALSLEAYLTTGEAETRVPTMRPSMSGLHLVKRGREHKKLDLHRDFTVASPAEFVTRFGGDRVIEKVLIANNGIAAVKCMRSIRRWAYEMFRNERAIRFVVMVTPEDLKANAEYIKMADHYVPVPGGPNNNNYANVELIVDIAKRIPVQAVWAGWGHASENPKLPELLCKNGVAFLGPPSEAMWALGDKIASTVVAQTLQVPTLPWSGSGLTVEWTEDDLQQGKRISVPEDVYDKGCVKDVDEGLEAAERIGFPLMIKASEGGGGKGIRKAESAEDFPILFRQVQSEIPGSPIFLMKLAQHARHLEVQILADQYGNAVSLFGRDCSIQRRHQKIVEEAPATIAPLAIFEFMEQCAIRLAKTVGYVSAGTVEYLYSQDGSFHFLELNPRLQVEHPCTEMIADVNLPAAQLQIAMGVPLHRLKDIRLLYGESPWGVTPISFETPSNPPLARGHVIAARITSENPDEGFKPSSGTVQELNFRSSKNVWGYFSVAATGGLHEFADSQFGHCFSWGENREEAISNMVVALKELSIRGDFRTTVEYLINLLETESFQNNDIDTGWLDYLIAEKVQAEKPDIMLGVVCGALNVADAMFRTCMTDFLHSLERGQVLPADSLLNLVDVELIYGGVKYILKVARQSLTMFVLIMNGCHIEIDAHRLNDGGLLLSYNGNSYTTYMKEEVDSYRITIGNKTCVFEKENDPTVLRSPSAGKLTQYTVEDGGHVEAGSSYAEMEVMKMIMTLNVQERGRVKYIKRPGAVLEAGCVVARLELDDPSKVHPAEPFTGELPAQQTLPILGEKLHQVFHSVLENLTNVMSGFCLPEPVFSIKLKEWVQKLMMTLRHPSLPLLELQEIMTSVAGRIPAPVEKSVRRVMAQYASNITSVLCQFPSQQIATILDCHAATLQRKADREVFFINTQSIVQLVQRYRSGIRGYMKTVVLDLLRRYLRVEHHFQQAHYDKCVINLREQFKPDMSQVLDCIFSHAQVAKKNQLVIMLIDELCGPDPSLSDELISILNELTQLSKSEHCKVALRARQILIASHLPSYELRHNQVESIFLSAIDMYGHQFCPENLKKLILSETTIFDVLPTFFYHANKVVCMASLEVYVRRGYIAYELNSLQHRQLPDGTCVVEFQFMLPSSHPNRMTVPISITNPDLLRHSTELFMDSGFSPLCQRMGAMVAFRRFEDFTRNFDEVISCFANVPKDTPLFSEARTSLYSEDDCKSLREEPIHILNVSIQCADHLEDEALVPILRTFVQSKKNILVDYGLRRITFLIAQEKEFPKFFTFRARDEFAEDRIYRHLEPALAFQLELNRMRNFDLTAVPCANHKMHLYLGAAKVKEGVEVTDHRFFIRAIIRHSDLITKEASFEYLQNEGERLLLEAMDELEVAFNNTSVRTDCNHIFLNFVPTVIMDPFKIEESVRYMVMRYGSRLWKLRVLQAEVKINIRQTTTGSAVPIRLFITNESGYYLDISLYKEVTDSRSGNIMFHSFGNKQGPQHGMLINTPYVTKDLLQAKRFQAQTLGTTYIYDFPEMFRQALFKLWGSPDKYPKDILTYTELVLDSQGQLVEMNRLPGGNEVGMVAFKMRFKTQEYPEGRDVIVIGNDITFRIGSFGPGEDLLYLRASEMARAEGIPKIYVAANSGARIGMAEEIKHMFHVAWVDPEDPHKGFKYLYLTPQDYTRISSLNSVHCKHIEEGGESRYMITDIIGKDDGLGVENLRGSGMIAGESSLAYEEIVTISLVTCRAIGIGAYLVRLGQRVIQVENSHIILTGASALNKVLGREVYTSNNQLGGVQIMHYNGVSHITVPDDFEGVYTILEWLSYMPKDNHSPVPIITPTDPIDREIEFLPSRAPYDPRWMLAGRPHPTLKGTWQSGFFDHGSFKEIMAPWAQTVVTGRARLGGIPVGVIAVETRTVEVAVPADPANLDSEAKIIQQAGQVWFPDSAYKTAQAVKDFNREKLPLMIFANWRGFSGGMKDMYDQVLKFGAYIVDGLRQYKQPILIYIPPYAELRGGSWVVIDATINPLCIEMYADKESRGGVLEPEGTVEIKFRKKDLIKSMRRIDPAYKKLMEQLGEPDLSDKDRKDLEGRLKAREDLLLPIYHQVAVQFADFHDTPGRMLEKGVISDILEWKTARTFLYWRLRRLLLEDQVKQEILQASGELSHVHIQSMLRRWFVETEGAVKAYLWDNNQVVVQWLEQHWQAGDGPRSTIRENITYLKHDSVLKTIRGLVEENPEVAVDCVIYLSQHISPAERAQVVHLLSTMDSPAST

| Structure (SMILES) | IC50 [nM] |
| --- | --- |
| C[C@H](NC(=O)OCC1CC1)c1ccc(O[C@@H]2CCN(c3ncnc(OCC4CC4)c3F)C2)cc1 [Example 7.36] | 2900 |
| CC(=O)N[C@@H](C)c1ccc(O[C@@H]2CCN(c3ncnc(O[C@@H]4CCOC4)c3F)C2)cc1 [Example 7.38] | 196 |
| CC(=O)N[C@@H](C)c1ccc(O[C@@H]2CCN(c3ncnc(OCC(C)(C)O)c3Cl)C2)cc1 [Example 7.42] | 81 |
| CC(=O)N[C@@H](C)c1ccc(O[C@@H]2CCN(c3ncnc(OC4CCCC4)c3F)C2)cc1 [Example 7.47] | 58 |
| CC(=O)N[C@@H](C)c1ccc(O[C@@H]2CCN(c3ncnc(OC[C@@H]4CC4(F)F)c3F)C2)cc1 [Example 7.48] | 87 |
| COc1c(OCC(C)(F)F)ncnc1N1CC[C@@H](Oc2ccc([C@H](C)NC(C)=O)cc2)C1 [Example 7.49] | 117 |
| COc1c(OCC(F)F)ncnc1N1CC[C@@H](Oc2ccc([C@H](C)NC(C)=O)cc2)C1 [Example 7.54] | 162 |
| CC(=O)N[C@@H](C)c1ccc(O[C@@H]2CCN(c3ncnc(OCC(F)F)c3Cl)C2)cc1 [Example 7.57] | 109 |
| COc1c(OCC(C)(C)O)ncnc1N1CC[C@@H](Oc2ccc([C@H](C)NC(C)=O)cc2)C1 [Example 7.58] | 355 |
| COc1c(OCC2CC2)ncnc1N1CC[C@@H](Oc2ccc([C@H](C)NC(C)=O)cc2)C1 [Example 7.59] | 39 |
| COC(C)(C)COc1ncnc(N2CC[C@@H](Oc3ccc([C@H](C)NC(C)=O)cc3)C2)c1Cl [Example 7.60] | 145 |
| COc1c(OCC(C)(C)OC)ncnc1N1CC[C@@H](Oc2ccc([C@H](C)NC(C)=O)cc2)C1 [Example 7.61] | 233 |
| CCC(=O)Nc1nc(C)c(C(=O)N[C@@H](C)c2ccc(O[C@@H]3CCN(c4ncnc(OCC5CC5)c4OC)C3)cc2)s1 [Example 7.63] | 112 |
| CC(=O)N[C@@H](C)c1ccc(O[C@@H]2CCN(c3ncnc(OC4CCOCC4)c3Cl)C2)cc1 [Example 7.64] | 128 |
| CCC(=O)Nc1nc(C)c(C(=O)N[C@@H](C)c2ccc(O[C@@H]3CCN(c4ncnc(OCC(C)(C)O)c4F)C3)cc2)s1 [Example 7.65] | 650 |
| CCC(=O)Nc1nc(C)c(C(=O)N[C@@H](C)c2ccc(O[C@@H]3CCN(c4ncnc(OCC(C)(C)O)c4Cl)C3)cc2)s1 [Example 7.66] | 723 |
| CC(=O)N[C@@H](C)c1ccc(O[C@@H]2CCN(c3ccnc(N(C)CC4CC4)n3)C2)cc1 [Example 8.3] | 125 |
| CC(=O)N[C@@H](C)c1ccc(O[C@@H]2CCN(c3ccnc(NC4CCCC4)n3)C2)cc1 [Example 8.4] | 1030 |
| CCCN(C)c1nccc(N2CC[C@@H](Oc3ccc([C@H](C)NC(C)=O)cc3)C2)n1 [Example 8.6] | 102 |
| CCCN(C)c1cc(N2CC[C@@H](Oc3ccc([C@H](C)NC(C)=O)cc3)C2)ncn1 [Example 8.7] | 865 |
| CC(=O)N[C@@H](C)c1ccc(O[C@@H]2CCN(c3nc(N4CCCCC4)ncc3F)C2)cc1 [Example 8.8] | 45 |
| CC(=O)N[C@@H](C)c1ccc(O[C@@H]2CCN(c3nc(N(C)CC4CC4)ncc3F)C2)cc1 [Example 8.9] | 33 |
| CC(=O)N[C@@H](C)c1ccc(O[C@@H]2CCN(c3nc(NC4CCCC4)ncc3F)C2)cc1 [Example 8.10] | 190 |
| CC(=O)N[C@@H](C)c1ccc(O[C@@H]2CCN(c3nc(N(C)C4CCCC4)ncc3F)C2)cc1 [Example 8.11] | 58 |
| CC(=O)N[C@@H](C)c1ccc(O[C@@H]2CCN(c3ccnc(N4CCC(C)C4)n3)C2)cc1 (stereo partly shown) [Example 8.17] | 167 |
| CC(=O)N[C@@H](C)c1ccc(O[C@@H]2CCN(c3ccnc(N4CCCCC4)n3)C2)cc1 [Example 8.18] | 160 |
| CCN(C)c1nccc(N2CC[C@@H](Oc3ccc([C@H](C)NC(C)=O)cc3)C2)n1 [Example 8.21] | 190 |
| CC(=O)N[C@@H](C)c1ccc(O[C@@H]2CCN(c3ccnc(N(C)CCc4ccccc4)n3)C2)cc1 [Example 8.22] | 986 |
| CCN(CC)c1nccc(N2CC[C@@H](Oc3ccc([C@H](C)NC(C)=O)cc3)C2)n1 [Example 8.24] | 174 |

Further lines, results first:

| IC50 [nM] | Structure (SMILES) |
| --- | --- |
| 250 | CC(=O)N[C@@H](C)c1ccc(O[C@@H]2CCN(c3ncnc(OC4CCOCC4)c3F)C2)cc1 [Example 7.37] |
| 60 | CC(=O)N[C@@H](C)c1ccc(O[C@@H]2CCN(c3ncnc(OCC(C)(F)F)c3Cl)C2)cc1 [Example 7.39] |
| 42 | CC(=O)N[C@@H](C)c1ccc(O[C@@H]2CCN(c3ncnc(OCC4CC4(F)F)c3Cl)C2)cc1 (stereo partly shown) [Example 7.40] |
| 39 | CC(=O)N[C@@H](C)c1ccc(O[C@@H]2CCN(c3ncnc(OC4CCC4)c3Cl)C2)cc1 [Example 7.41] |
| 277 | CCOc1ncnc(N2CC[C@@H](Oc3ccc([C@H](C)NC(C)=O)cc3)C2)c1OC [Example 7.44] |
| 99 | CC(=O)N[C@@H](C)c1ccc(O[C@@H]2CCN(c3ncnc(OC[C@H]4CC4(F)F)c3F)C2)cc1 [Example 7.45] |
| 595 | COC(C)(C)COc1ncnc(N2CC[C@@H](Oc3ccc([C@H](C)NC(C)=O)cc3)C2)c1F [Example 7.46] |
| 97 | COc1c(OC(C)C)ncnc1N1CC[C@@H](Oc2ccc([C@H](C)NC(C)=O)cc2)C1 [Example 7.50] |
| 392 | CCCOc1ncnc(N2CC[C@@H](Oc3ccc([C@H](C)NC(C)=O)cc3)C2)c1OC [Example 7.51] |
| 105 | CC(=O)N[C@@H](C)c1ccc(O[C@@H]2CCN(c3ncnc(OC(C)C)c3Cl)C2)cc1 [Example 7.52] |
| 32 | CC(=O)N[C@@H](C)c1ccc(O[C@@H]2CCN(c3ncnc(OC4CCCC4)c3Cl)C2)cc1 [Example 7.53] |
| 69 | COc1c(OC2CCCC2)ncnc1N1CC[C@@H](Oc2ccc([C@H](C)NC(C)=O)cc2)C1 [Example 7.55] |
| 75 | COc1c(OCC2CC2(F)F)ncnc1N1CC[C@@H](Oc2ccc([C@H](C)NC(C)=O)cc2)C1 (stereo partly shown) [Example 7.56] |
| 789 | CC(=O)N[C@@H](C)c1ccc(O[C@@H]2CCN(c3nc(OCC4CC4(F)F)ncc3F)C2)cc1 (stereo partly shown) [Example 7.67] |
| 55 | CC(=O)N[C@@H](C)c1ccc(O[C@@H]2CCN(c3nc(N(C)C)ncc3F)C2)cc1 [Example 8.1, N—((S)-1-(4-((R)-1-(2-(dimethylamino)-5-fluoropyrimidin-4-yl)pyrrolidin-3-yloxy)phenyl)ethyl)acetamide] |
| 424 | CC(=O)N[C@@H](C)c1ccc(O[C@@H]2CCN(c3cc(N(C)CC4CC4)ncn3)C2)cc1 [Example 8.2] |
| 403 | CC(=O)N[C@@H](C)c1ccc(O[C@@H]2CCN(c3ccnc(N4CCCC4)n3)C2)cc1 [Example 8.5] |
| 67 | CC(=O)N[C@@H](C)c1ccc(O[C@@H]2CCN(c3nc(N4CCCC4)ncc3F)C2)cc1 [Example 8.12] |
| 710 | CC(=O)N[C@@H](C)c1ccc(O[C@@H]2CCN(c3ccnc(N(C)C)n3)C2)cc1 [Example 8.14] |
| 354 | CC(=O)N[C@@H](C)c1ccc(O[C@@H]2CCN(c3ccnc(N4CCCC4C)n3)C2)cc1 (stereo partly shown) [Example 8.16] |
| 475 | CC(=O)N[C@@H](C)c1ccc(O[C@@H]2CCN(c3ccnc(N(C)C4CC4)n3)C2)cc1 [Example 8.19] |
| 170 | CC(=O)N[C@@H](C)c1ccc(O[C@@H]2CCN(c3ccnc(N(C)C4CCCC4)n3)C2)cc1 [Example 8.20] |
| 185 | CC(=O)N[C@@H](C)c1ccc(O[C@@H]2CCN(c3ccnc(N(C)Cc4ccccc4)n3)C2)cc1 [Example 8.23] |
